Measured values reported in US20230111853A1, “COMPOUNDS MODULATING PROTEIN RECRUITMENT AND/OR DEGRADATION” (Orionis Biosciences, Inc., priority 2019, published 2023).
Like-named read-outs stand apart in the source and are kept apart here.

Columns and labels:
[1] = tested on: IKZF1, ASS1 and SALL4 recruitment to CRBN; assay: Recruitment assessment: recruitment of any tested substrate from among IKZF1, ASS1 and SALL4; format: cell-based; details: any tested substrate at any tested compound concentration
CRBN = CRBN (Homo sapiens, UniProt Q96SW2); assay: Competition Assay (MAPPIT-like, competition with trimethoprim-lenalidomide hybrid ligand for binding to CRBN in cells)
[2] = target: T1, SALL4 recruitment to CRBN (Homo sapiens, UniProt Q96SW2); assay: Recruitment Assay (MAPPIT-like): SALL4 recruitment to CRBN; format: cell-based; details: HEK293T cells; pSEL-SALL4+pMG1-CRBN; luciferase 24 hours after treatment; read-out: EC50_SALL4
T1 construct: Full size proteins were fused for each of the target proteins tested, except in the case of IKZF1 where isoform 7 was used; expressed in transfected cells; host or cells: HEK293T
Experimental: (§1) In this experimental set-up, cells were transfected with a construct encoding a CRBN-fusion protein and another one encoding a substrate-fusion protein. Test compound activity was assessed with increasing concentrations of test compounds (dose-response studies) to monitor the ability to promote CRBN-ligand-induced protein interaction.
(§2) Full size proteins were fused for each of the target proteins tested, except in the case of IKZF1 where isoform 7 was used. For the study, the following were used: IKZF1 recruitment: pSEL-CRBN+pMG1-IKZF1(isoform 7); ASS1 recruitment: pSEL-CRBN+pMG1-ASS1. SALL4 recruitment: pSEL-SALL4+pMG1-CRBN. […] Luciferase activity was measured 24 hours after test compound treatment using the Luciferase Assay System kit (PROMEGA, Madison, Wis.) with an Ensight plate reader (PERKIN ELMER LIFE SCIENCES, Waltham, Mass.). Data points depicted fold induction of the average luciferase activity of triplicate samples from EPO+test compound treated cells versus EPO only treated cells. Error bars represent standard deviations. Curves were fit using 4-parameter nonlinear regression in […] PRISM software.

[3] = target: T2, IKZF1 (isoform 7) recruitment to CRBN (Homo sapiens, UniProt Q96SW2); assay: Recruitment Assay (MAPPIT-like): IKZF1 recruitment to CRBN; format: cell-based; details: HEK293T cells; pSEL-CRBN+pMG1-IKZF1(isoform 7); luciferase 24 hours after treatment; read-out: EC50_IKZF1
T2 construct: Full size proteins were fused for each of the target proteins tested, except in the case of IKZF1 where isoform 7 was used; expressed in transfected cells; host or cells: HEK293T
Experimental: as §1, §2

ASS1 recruitment to CRBN = target: T3, ASS1 recruitment to CRBN (Homo sapiens, UniProt Q96SW2); assay: Recruitment Assay (MAPPIT-like): ASS1 recruitment to CRBN; format: cell-based; details: HEK293T cells; pSEL-CRBN+pMG1-ASS1; luciferase 24 hours after treatment; read-out: EC50_ASS1
T3 construct: Full size proteins were fused for each of the target proteins tested, except in the case of IKZF1 where isoform 7 was used; expressed in transfected cells; host or cells: HEK293T
Experimental: as §1, §2

[4] = read-out: IC50 Competition, HEK293T cells, competition with 300 nM trimethoprim-lenalidomide hybrid ligand, luciferase 24 hours after compound treatment

Row | SMILES | IC50 (CRBN; [4]) | EC50 [2] | IC50 (CRBN) | EC50 [3] | EC50 (ASS1 recruitment to CRBN) | Recruitment Assessment [1]
1 | Cc1ccc2c(c1)C(=O)N(c1c(C(C)C)cccc1C(C)C)C2=O [5HPP-33, 2-(2,6-diisopropylphenyl)-5-methyl-isoindoline-1,3-dione, reference compound] | 5110 nM | – | – | – | – | FALSE
2 | O=C1CCC(n2nnc3ccccc3c2=O)C(=O)N1 (stereo not shown) [C21223, 3-(4-oxo-1,2,3-benzotriazin-3-yl)piperidine-2,6-dione] | – | 517 nM | 2240 nM | – | – | TRUE
3 | O=C1CCC(N2C(=O)C3CCCCC3C2=O)C(=O)N1 (stereo not shown) [C24191, 2-(2,6-dioxo-3-piperidyl)-3a,4,5,6,7,7a-hexahydroisoindole-1,3-dione] | 17700 nM | – | – | – | – | FALSE
4 | Nc1cccc2nnn(C3CCC(=O)NC3=O)c(=O)c12 (stereo not shown) [C59904, 3-(5-amino-4-oxo-1,2,3-benzotriazin-3-yl)piperidine-2,6-dione] | – | 330 nM | – | 122 nM | 687 nM | TRUE
5 | O=C1CCC(N2Cc3c(ccc4c3OCO4)C2=O)C(=O)N1 (stereo not shown) [C67858, 3-(6-oxo-8H-[1,3]dioxolo[4,5-e]isoindol-7-yl)piperidine-2,6-dione] | – | 29.3 nM | – | 569 nM | 884 nM | TRUE
6 | O=C1CC/C(=C/c2ccccc2)C(=O)N1 [C68121, (3Z)-3-benzylidenepiperidine-2,6-dione] | 6500 nM | – | – | – | – | FALSE
7 | O=C1CCC(Nc2ncc3ccccc3n2)C(=O)N1 (stereo not shown) [C97402, 3-(quinazolin-2-ylamino)piperidine-2,6-dione] | 6320 nM | – | – | – | – | FALSE

The next lines start with results.

Row | IC50 (CRBN; [4]) | EC50 [2] | IC50 (CRBN) | EC50 [3] | EC50 (ASS1 recruitment to CRBN) | SMILES | Recruitment Assessment [1]
8 | – | < 13.7 nM | – | 77.4 nM | 368 nM | Cc1cccc2c1CN(C1CCC(=O)NC1=O)C2=O (stereo not shown) [C28558, 3-(4-methyl-1-oxo-isoindolin-2-yl)piperidine-2,6-dione] | TRUE
9 | – | < 13.7 nM | – | 1610 nM | 653 nM | Cc1ccc2c(c1)CN(C1CCC(=O)NC1=O)C2=O (stereo not shown) [C28577, 3-(5-methyl-1-oxo-isoindolin-2-yl)piperidine-2,6-dione] | TRUE
10 | – | 62.1 nM | – | 1240 nM | 921 nM | O=C1CCC(N2Cc3c(cccc3-c3ccccc3)C2=O)C(=O)N1 (stereo not shown) [C48014, 3-(1-oxo-4-phenyl-isoindolin-2-yl)piperidine-2,6-dione] | TRUE
11 | – | 59.3 nM | – | 1520 nM | 1700 nM | CC1c2ccccc2C(=O)N1C1CCC(=O)NC1=O (stereo not shown) [C51383, 3-(1-methyl-3-oxo-isoindolin-2-yl)piperidine-2,6-dione] | TRUE
12 | 199 nM | – | – | – | – | O=C1CCC(N2Cc3ccc(NCC(=O)Nc4ccccc4)cc3C2=O)C(=O)N1 (stereo not shown) [C84965, 2-[[2-(2,6-dioxo-3-piperidyl)-3-oxo-isoindolin-5-yl]amino]-N-phenyl-acetamide] | TRUE
